Measured values: US20030191347A1 (priority 2002, published 2003)

Assay: dissolution in water
Format: physicochemical
Settings: stated in words only, no figure

COc1ccc(C(CN(C)C)C2(O)CCCCC2)cc1 (stereo not shown) [venlafaxine base, 1-[2-(dimethylamino)-1-(4-methoxyphenyl)ethyl]cyclohexanol]
dissolution in water: slow
